Laboratory results published in patent publication US12552812B2, “Pyridone multiple-membered ring derivatives and use thereof” (priority 2021, dated 2026).

Assays:
[1] = tested on: Baloxavir-resistant A/PR/8/34 (H1N1) I38T influenza virus strain; assay type: cell-based
[2] = tested on: Baloxavir-resistant A/PR/8/34 (H1N1) I38T virus strain; design: species or system BALB/c mice; details: mouse, in vivo

Row | SMILES | EC50 [1] [nM] | Survival rate (%) [2] [%] | body weight of the mice [2]
1 | O=C1c2c(O)c(=O)ccn2N([C@H]2c3ccc(F)c(F)c3C[Se]c3cccnc32)[C@@H]2COCCN12 [Compound 3] | 57.5 | – | –
2 | COC(=O)OCOc1c2n(ccc1=O)N([C@H]1c3ccc(F)c(F)c3C[Se]c3cccnc31)[C@@H]1COCCN1C2=O [Compound 4] | – | 100 | hardly decreased
